Laboratory results published in ChEMBL document CHEMBL1201862, “PubChem BioAssay data set” (2004).
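Exposure lasted 48 hours, with cells grown in 96-well plates and compounds tested at five concentrations. Here, GI50 denotes the concentration required for 50% inhibition of growth.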 The source made the active and inactive calls. Cut-off read from the data, not from the text of the source: active = GI50 up to about 1.1 µM and inactive = higher.

Tests used:
Assay in all cases: NCI anticancer screen, dose series, 48 h
A498 = system: A498
U-251 = system: U-251
RPMI-8226 = system: RPMI-8226
SK-OV-3 = system: SK-OV-3
HCT-15 = system: HCT-15
K562 = system: K562
SNB-75 = system: SNB-75
HOP-62 = system: HOP-62
HL-60 = system: HL-60
OVCAR-8 = system: OVCAR-8
TK-10 = system: TK-10
HOP-92 = system: HOP-92
OVCAR-4 = system: OVCAR-4
UACC-62 = system: UACC-62
UO-31 = system: UO-31
M14 = system: M14
SK-MEL-5 = system: SK-MEL-5
MOLT-4 = system: MOLT-4
SK-MEL-28 = system: SK-MEL-28
SW-620 = system: SW-620

Measured: GI50

CCCn1c(CN(Cc2nc3ccccc3n2CCC)Cc2nc3ccccc3n2CCC)nc2ccccc21
active: HL-60 764 nM
4.39 µM: HCT-15
inactive: A498 4.74 µM | U-251 3.97 µM | RPMI-8226 2.04 µM | SK-OV-3 41.5 µM | K562 1.23 µM | SNB-75 6.79 µM | HOP-62 10.8 µM | OVCAR-8 2.25 µM | TK-10 15.7 µM | HOP-92 3.03 µM | OVCAR-4 3.73 µM | UACC-62 3.7 µM | UO-31 2.21 µM | M14 2.46 µM | SK-MEL-5 2.55 µM | MOLT-4 3.21 µM | SK-MEL-28 10.7 µM | SW-620 5.11 µM
